Test results: PubChem BioAssay (NCI)
Where “and” joins values, the source holds several entries; their conditions need not be identical. Equal values may be shown once.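 Five compound concentrations were applied to cells in 96-well plates for 48 hours; endpoints were derived by simple linear interpolation of the resulting dose-response curve. GI50 is the concentration that inhibits growth by half. TGI: concentration producing complete growth inhibition.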

Tests used:
Assay in all cases: NCI anticancer screen, dose series, 48 h
MDA-N = test system: MDA-N
HOP-18 NSCLC = test system: HOP-18 NSCLC
KM20L2 colon = test system: KM20L2 colon
M19-MEL melanoma = test system: M19-MEL melanoma
XF 498 CNS = test system: XF 498 CNS
DMS 273 small cell lung = test system: DMS 273 small cell lung
SNB-78 CNS = test system: SNB-78 CNS
DMS 114 small cell lung = test system: DMS 114 small cell lung
RXF-631 renal = test system: RXF-631 renal

Compound	TGI (MDA-N)	TGI (HOP-18 NSCLC)	TGI (KM20L2 colon)	TGI (M19-MEL melanoma)	TGI (XF 498 CNS)	TGI (DMS 273 small cell lung)	TGI (SNB-78 CNS)	TGI (DMS 114 small cell lung)	also measured
CN(NC(=O)CC(=O)NN(C)C(=S)c1ccccc1)C(=S)c1ccccc1	> 100 µM	–	–	–	–	–	–	–	–
CC(=O)[CH-]C(=O)c1ccccc1.CC(=O)[CH-]C(=O)c1ccccc1.CC(=O)[CH-]C(=O)c1ccccc1.[Tl+3]	–	> 100 µM	> 100 µM	> 100 µM	–	–	–	–	GI50 (HOP-18 NSCLC): > 100 µM; GI50 (KM20L2 colon): 45.6 µM; GI50 (M19-MEL melanoma): 38 µM
COc1ccc2c([nH]c3cc(O)c(C)cc32)c1C=O	–	–	> 25 µM	> 25 µM	> 25 µM	> 25 µM	> 25 µM	> 25 µM	–
CN(C)CC(/C(Cc1ccccc1)=N\NC(=O)c1ccncc1)c1ccccc1 (centres undefined)	–	–	92.3 µM	> 100 µM	> 100 µM	–	–	81.8 µM	TGI (RXF-631 renal): > 100 µM
S=c1nc(Oc2ccc(Cl)c(Cl)c2)[nH]c(=S)[nH]1	> 100 µM	> 100 µM	> 100 µM	56.5 µM	65.6 µM	50 µM	> 100 µM	48.2 µM	TGI (RXF-631 renal): 32.8 µM
c1ccc(C(=NNc2nc3ccccc3o2)c2ccccn2)nc1	25.9 µM	–	–	–	–	–	–	–	–
CC1(C)COCN1COC1CCCCC1	> 100 µM	–	–	–	–	–	–	–	–
Cc1ncc([N+](=O)[O-])n1CCNS(=O)(=O)CCCn1ccnc1[N+](=O)[O-]	> 100 µM	–	–	–	–	–	–	–	–
Nc1ccccc1/C=C\c1ccccc1	> 100 µM	–	–	–	–	–	–	–	–
COC1/C=C\C=C(/C)C(=O)Nc2cc3nc4ccc(Br)cc4oc-3c(c2=O)CC(C)CC(OC)C(O)C(C)/C=C(\C)C1OC(N)=O (centres undefined)	1.27 µM	17.3 µM	3.65 µM	2.26 µM	0.466 µM	4.19 µM	30 µM	5.34 µM	GI50 (MDA-N): 0.0124 µM
O=C1C(Cl)=C(Oc2ccc([N+](=O)[O-])cc2)C(=O)c2c(O)ccc(O)c21	> 31.6 µM	–	–	–	–	–	–	–	–
CN(C)CCCN=C(N)N	> 100 µM	–	–	–	–	–	–	–	–
C1CNCCNCCNCCN1	–	> 100 µM	> 100 µM	> 100 µM	–	> 100 µM	> 100 µM	> 100 µM	–
O=C1CCCCCCCCCCC(=O)C2CCOCCOCCOCCC1Cc1cccc(n1)C2	–	–	> 100 µM	> 100 µM	> 100 µM	> 100 µM	> 100 µM	> 100 µM	TGI (RXF-631 renal): > 100 µM
OCC(O)C(O)C(O)C1SC(c2ccccc2)=NN1c1ccccc1 (centres undefined)	> 100 µM	> 100 µM	> 100 µM	> 100 µM	> 78.1 µM	> 100 µM	> 96.4 µM	> 100 µM	TGI (RXF-631 renal): > 100 µM
O=C1/C(=C/c2ccc(O)c([N+](=O)[O-])c2)CCC/C1=C\c1ccc(O)c([N+](=O)[O-])c1	19.9 µM and > 100 µM	–	–	–	–	–	–	–	GI50 (MDA-N): 25.9 µM
N/N=C(\CC1OC(=O)c2ccccc21)c1ccco1 (centres undefined)	–	0.343 µM	> 100 µM	> 100 µM	–	> 100 µM	–	> 100 µM	–
Cc1cccc(C)c1NC(=O)CCCC(=O)CC(=O)/C=C/c1ccccc1	–	> 100 µM	> 100 µM	> 100 µM	> 100 µM	> 100 µM	> 100 µM	> 100 µM	TGI (RXF-631 renal): > 100 µM
c1cc2c(cc1C(N1CCNCC1)N1CCNCC1)OCO2	> 100 µM	–	–	–	–	–	–	–	–
O=C(CNC(=O)OCc1ccccc1)Oc1ccccc1	–	> 100 µM	> 100 µM	> 100 µM	> 100 µM	> 100 µM	> 100 µM	> 100 µM	–
FC(F)(F)c1cccc(COCCN2CCN(Cc3cccc(C(F)(F)F)c3)CC2)c1	34.4 µM	–	–	–	–	–	–	–	–
CCOc1cc2c(cnc3c4cc(OC)c(OC)cc4ccc23)cc1OC	–	–	> 100 µM	> 100 µM	> 100 µM	–	–	> 100 µM	–

Compound	TGI (MDA-N)	TGI (HOP-18 NSCLC)	TGI (KM20L2 colon)	TGI (M19-MEL melanoma)	TGI (XF 498 CNS)	TGI (DMS 273 small cell lung)	TGI (SNB-78 CNS)	TGI (DMS 114 small cell lung)	also measured
S=c1[nH]c(=S)c2sc(=S)n(-c3ccccc3)c2[nH]1	–	> 100 µM	> 100 µM	> 100 µM	> 100 µM	> 100 µM	> 100 µM	> 100 µM	–
CC1Cc2c(N)nc(NN)nc2NC1=O (centres undefined)	–	> 100 µM	> 100 µM	> 100 µM	> 100 µM	> 100 µM	–	> 100 µM	–
OC(C1=C/C(=C\c2ccncc2)c2ccccc21)c1ccncc1 (centres undefined)	30.4 µM	–	–	–	–	–	–	–	–
CC(=O)OCC1OC(OC2CC3C(C)(C)C(OC(C)=O)CC[C@]3(C)C3CCC45CC4(CC[C@H]5C(C)CC(O)[C@@H](O)C(C)(C)O)[C@]23C)C(O)C(O)C1O (some centres undefined)	–	15 µM and 17.3 µM	14.4 µM and 21.6 µM	13.7 µM and 12.7 µM	33.9 µM	13.8 µM and 20.3 µM	–	–	GI50 (HOP-18 NSCLC): 5.43 µM; GI50 (M19-MEL melanoma): 3.18 µM
COc1cc2c(c(OC)c1OC)-c1ccc(SC)c(=O)cc1[C@@H](NC(=O)c1ccc(OC(C)=O)cc1)CC2	–	–	0.0358 µM	> 100 µM	0.0597 µM	> 100 µM	–	0.0336 µM	TGI (RXF-631 renal): 18.1 µM; GI50 (DMS 114 small cell lung): 0.0144 µM
Cc1ccccc1C(=O)C#Cc1cn(C2CC(O)C(CO)O2)c(=O)[nH]c1=O (centres undefined)	> 100 µM	–	–	–	–	–	–	–	–
COc1ccc(C2S/C(=C\c3cc(OC)c(OC)c(OC)c3)C(=O)N2NC(=O)Cc2ccccc2)cc1 (centres undefined)	–	> 100 µM	–	> 100 µM	–	> 100 µM	–	> 100 µM	–
COc1ccc(/C=C\c2cc(OC)c(OC)c(OC)c2)cc1OC(=O)C(N)CCC(=O)O (centres undefined)	–	–	9.55 µM	67.3 µM	0.0491 µM	–	46.4 µM	–	GI50 (KM20L2 colon): 1.51 µM; GI50 (MDA-N): 0.000204 µM
N#Cc1ccccc1NC(=O)/C(=N\NC(=O)c1ccncc1)C(c1cnc2ccc([N+](=O)[O-])cc2n1)[N+](=O)[O-] (centres undefined)	> 100 µM	–	–	–	–	–	–	–	–
O=C(O)c1c2c(c(C(=O)O)c3ccccc13)-c1ccccc1-2	–	83.9 µM	> 100 µM	> 100 µM	> 100 µM	> 100 µM	> 100 µM	> 100 µM	–
Cc1nc2c(=O)[nH]c(=O)n(C)c2[nH]c1=O	–	–	> 100 µM	> 100 µM	–	> 100 µM	–	–	–
O=[N+]([O-])c1ccc(Sc2c3ccccc3nc3ccccc23)cc1	–	> 100 µM	> 100 µM	> 100 µM	> 100 µM	–	> 100 µM	–	TGI (RXF-631 renal): > 100 µM
COC1/C(=C\C(=O)OC(C)(C)C)c2ccccc2N1C(C)=O (centres undefined)	–	> 100 µM	> 100 µM	> 100 µM	> 100 µM	> 100 µM	> 100 µM	> 100 µM	TGI (RXF-631 renal): > 100 µM
COc1ccc(C(=O)C(c2ccc(OC)cc2)C2(O)C(=O)Nc3c(C)cc(Cl)cc32)cc1 (centres undefined)	–	–	> 100 µM	44.2 µM	–	> 100 µM	> 100 µM	–	TGI (RXF-631 renal): > 100 µM
Cc1cc(O)c(C(=O)CC2(O)C(=O)Nc3c(Cl)cc(Cl)cc32)c(=O)o1 (centres undefined)	–	> 100 µM	> 100 µM	> 100 µM	> 100 µM	> 100 µM	> 100 µM	–	TGI (RXF-631 renal): > 100 µM
COC(=O)/C=C(C)/C=C/c1cc(C(C)=O)c(C)o1	–	> 100 µM	> 100 µM	–	> 100 µM	–	> 100 µM	> 100 µM	–
CC(C)=CC(=O)Oc1ccc([N+](=O)[O-])cc1	–	> 100 µM	> 100 µM	> 100 µM	> 100 µM	> 100 µM	> 100 µM	> 100 µM	–
COc1ccccc1C1=C2C(=O)N(C)C(c3ccccc3OC)=C2C(=O)N1C	> 100 µM	–	–	–	–	–	–	–	–
CC1(CO)OC1COCc1ccccc1 (centres undefined)	–	–	> 100 µM	–	> 100 µM	> 100 µM	> 100 µM	> 100 µM	TGI (RXF-631 renal): > 100 µM
CC(=O)NC1=C(Nc2ccc(C)cc2)C(=O)c2ccccc2C1=O	–	28.5 µM	> 75 µM	17.5 µM	73.1 µM	61 µM	> 75 µM	38.4 µM	–
Cn1nc(-c2ccccc2)c(N=[N+]=[N-])cc1=O	–	–	> 100 µM	> 100 µM	> 100 µM	> 100 µM	–	> 100 µM	–
